Measurements from publication PMC12283027, “Development of Potent and Selective RIPK1 Degraders Targeting Its Nonenzymatic Function for Cancer Treatment” (Journal of Medicinal Chemistry, 2025).

target: T1, Receptor-interacting protein kinase 1 (RIPK1) (Homo sapiens, UniProt Q13546); experiment: cell-based; parameters: HiBiT luminescence of CRISPR-tagged endogenous RIPK1 (C-terminal HiBiT) after PROTAC treatment; degradation DC50 and Dmax; details: HEK293T-RIPK1-HiBiT cells; read-out: Dmax (HEK293T-RIPK1-HiBiT cell line)
T1 construct: with VHL
Protocol: Screening of RIPK1 Degraders Using HEK-293T-RIPK1-HiBiT cells  3 Primary screening RIPK1 degraders using HEK293T-RIPK1-HiBiT cell line. Cells were seeded in 96-well plates and treated with test compounds for 20 h. After treatment, Bioluminescence signal reflecting RIPK1 protein level was generated by adding Nano-Glo HiBiT detect reagent. A) Bioluminescence signal was visualized using Bio-Rad ChemiDoc MP Imaging system. The grayscale intensity is positively correlated with protein abundance. B) Relative luminescence Units (RLUs) in each well was measured using CLARIOstar plate reader. DC50 values were calculated by nonlinear regression analysis in GraphPad Prism software. DC50 = dose that reduces RIPK1 protein by 50%. D max = maximum reduction of RIPK1 protein achieved by the compound. Guide RNA oligos for RIPK1 (foward: CACCGA-GCCCAT-CCAGGG-TTAGTTC. reverse: AAACGA-ACTAAC-CCTGGA-TGGGCTC) were cloned into Cas9 expression plasmid (pSpCas9–2A-GFP purchased from Addgene), and cotransfected with donor DNA oligo using FuGENE HD Transfection Reagent (Promega). GFP positive cells were FACS sorted and single clones were screened for HiBiT signal by Nano Glo HiBiT Lytic Detection System (Promega).

T1 sequence (Q13546 whole entry): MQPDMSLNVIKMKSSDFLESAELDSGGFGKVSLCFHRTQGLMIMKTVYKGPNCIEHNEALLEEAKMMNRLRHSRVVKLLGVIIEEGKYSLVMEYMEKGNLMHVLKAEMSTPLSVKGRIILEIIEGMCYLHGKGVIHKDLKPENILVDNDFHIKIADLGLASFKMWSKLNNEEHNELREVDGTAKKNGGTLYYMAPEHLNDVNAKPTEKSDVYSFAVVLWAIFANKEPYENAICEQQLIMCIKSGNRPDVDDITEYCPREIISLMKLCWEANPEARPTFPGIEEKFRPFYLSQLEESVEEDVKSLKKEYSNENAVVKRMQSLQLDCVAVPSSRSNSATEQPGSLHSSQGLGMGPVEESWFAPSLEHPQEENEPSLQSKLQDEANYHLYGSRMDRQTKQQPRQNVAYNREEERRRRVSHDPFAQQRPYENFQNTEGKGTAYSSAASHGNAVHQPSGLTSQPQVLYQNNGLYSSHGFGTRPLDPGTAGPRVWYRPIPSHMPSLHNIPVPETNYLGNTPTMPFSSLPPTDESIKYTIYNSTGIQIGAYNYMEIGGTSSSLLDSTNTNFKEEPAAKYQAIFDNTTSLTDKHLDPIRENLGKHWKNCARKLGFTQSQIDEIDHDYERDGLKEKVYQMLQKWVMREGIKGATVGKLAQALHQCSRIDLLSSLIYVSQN
T1 sequence (P40337 whole entry partner): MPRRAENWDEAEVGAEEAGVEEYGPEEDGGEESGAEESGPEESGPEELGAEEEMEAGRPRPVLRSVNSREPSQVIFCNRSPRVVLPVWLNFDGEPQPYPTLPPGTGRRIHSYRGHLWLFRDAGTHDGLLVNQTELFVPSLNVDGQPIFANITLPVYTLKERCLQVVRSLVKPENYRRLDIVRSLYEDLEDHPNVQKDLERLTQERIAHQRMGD

| Structure (SMILES) | Dmax [%] |
| --- | --- |
| Cc1ncsc1-c1ccc([C@H](C)NC(=O)[C@@H]2C[C@@H](O)CN2C(=O)[C@@H](NC(=O)C2CCN(CCNC(=O)Cn3cc(-c4cnc(N)c5c(-c6ccc7c(c6)CCN7C(=O)Cc6ccccc6)csc45)cn3)CC2)C(C)(C)C)cc1 [225-6] | 34 |
| Cc1ncsc1-c1ccc([C@H](C)NC(=O)[C@@H]2C[C@@H](O)CN2C(=O)[C@@H](NC(=O)C2CCN(CCCNC(=O)Cn3cc(-c4cnc(N)c5c(-c6ccc7c(c6)CCN7C(=O)Cc6ccccc6)csc45)cn3)CC2)C(C)(C)C)cc1 [225-7] | 22 |
| Cc1ncsc1-c1ccc([C@H](C)NC(=O)[C@@H]2C[C@@H](O)CN2C(=O)[C@@H](NC(=O)CCCCCN2CCN(C(=O)Cn3cc(-c4cnc(N)c5c(-c6ccc7c(c6)CCN7C(=O)Cc6ccccc6)csc45)cn3)CC2)C(C)(C)C)cc1 [229-1] | 58 |
| Cc1ncsc1-c1ccc([C@H](C)NC(=O)[C@@H]2C[C@@H](O)CN2C(=O)[C@@H](NC(=O)CCCCNC2CCN(C(=O)Cn3cc(-c4cnc(N)c5c(-c6ccc7c(c6)CCN7C(=O)Cc6ccccc6)csc45)cn3)CC2)C(C)(C)C)cc1 [229-2] | 9 |
| Cc1ncsc1-c1ccc([C@H](C)NC(=O)[C@@H]2C[C@@H](O)CN2C(=O)[C@@H](NC(=O)CCN2CCN(C(=O)CNC(=O)Cn3cc(-c4cnc(N)c5c(-c6ccc7c(c6)CCN7C(=O)Cc6ccccc6)csc45)cn3)CC2)C(C)(C)C)cc1 [229-3] | 5 |
| Cc1ncsc1-c1ccc([C@H](C)NC(=O)[C@@H]2C[C@@H](O)CN2C(=O)[C@@H](NC(=O)CCN2CCN(CCNC(=O)Cn3cc(-c4cnc(N)c5c(-c6ccc7c(c6)CCN7C(=O)Cc6ccccc6)csc45)cn3)CC2)C(C)(C)C)cc1 [229-4] | 25 |
